The values below come from patent EP0728482A2, “Use of hcp specific compounds to enhance erythropoiesis” (SMITHKLINE BEECHAM CORPORATION, priority 1995, dated 1996).

The target in assay [1] is T1, human SH-PTP2 SH2 domain (Homo sapiens, UniProt Q06124).
T1 construct: made in house; host or cells: E. coli (pGEX-2T)
T1 sequence (Q06124 1-106): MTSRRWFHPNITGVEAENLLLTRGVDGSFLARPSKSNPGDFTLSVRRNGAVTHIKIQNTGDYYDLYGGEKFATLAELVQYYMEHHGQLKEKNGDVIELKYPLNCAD
Description: ELISA-based SH2 domain / pY peptide binding assay, SH-PTP2 SH2 domain. Conditions: Ki calculated from IC50 with the expanded equation. As to the method:
(§1) The inhibitory activity of compounds at the different human SH2 domains was determined in vitro using SH2 domains expressed as fusion proteins in E. coli. The SH2 domains used herein were the human forms of the src SH2 domain, Grb2 SH2 domain, lck SH2 domain, fyn SH2 domain, SH-PTP2 SH2 domain, p85 SH2 domain and hcp SH2 domain.
(§2) Fusion proteins having the structure GST-X-SH2 were prepared as described in the GST gene fusion kit system available from Pharmacia (New Jersey). GST is the tagging sequence glutathione s-transferase epitope (SEQ ID NO: 8) for fyn, Grb2 and SH-PTP2 and is the tagging sequence glutathione s-transferase epitope (SEQ ID NO: 9) for p85. SH2 refers to the SH2 domains of fyn, Grb2, p85 and SH-PTP2 which were expressed and purified using glutathione Sepharose 4B (Pharmacia) according to "Current Protocols in Molecular Biology", ed. FM Ausubel et al., pub. John Wiley and Sons, Inc., (1995), p 16.7.1. X is an appropriate linker, preferably of 6 to 21 base pairs, used to keep the SH2 construct in frame and complement cloning. As such, the sequence of X is not critical. One skilled in the art can readily construct the appropriate linker. The DNA sequence encoding each GST-X-SH2 fusion protein was designed such that the indicated restriction sites (BamH1 and EcoRI) flank the SH2 region. […]

In assay [2] the target is T2, human Grb2 SH2 domain (Homo sapiens, UniProt P62993).
T2 construct: made in house; host or cells: E. coli (pGEX-2T)
In words: ELISA-based SH2 domain / pY peptide binding assay, Grb2 SH2 domain. As for the experimental part:
as §1, §2
For orientation: In an ELISA, binding on a coated surface is turned into a signal by an enzyme label.

Molecules are shown by their SMILES.

T2 sequence (P62993 58-159): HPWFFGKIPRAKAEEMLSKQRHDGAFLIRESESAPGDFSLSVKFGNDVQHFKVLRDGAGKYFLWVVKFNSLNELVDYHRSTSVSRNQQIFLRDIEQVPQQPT

As for `CCCCCCNC(=O)[C@H]1CC[C@H](CNC(=O)c2ccc(C(=O)c3ccc(C(=O)O)cc3)cc2)CC1` [Compound 6, 4-carboxy-benzophenone-4-carboxamido-trans-4-methyl-cyclohexyl-N-hexyl carboxamide], the Ki in assay [1] and in assay [2] (Ki calculated from IC50 with the expanded equation) was greater than 1000 µM each time. The IC50 (as a rule, the concentration that inhibits the measured activity by half) in assay [2] (inhibition of binding of 0.1 uM biotinylated pY peptide to SH2 domain fusion protein) is greater than 300 µM.
